Consider seven molecules from ChEMBL document CHEMBL1201862, “PubChem BioAssay data set” (2004).

As a reminder, the IC50 is the concentration needed to halve the response being measured. The AC50 is the concentration at which the activity in the assay is half-maximal. Broadly, the EC50 is the concentration giving half of the maximal effect.

Activity calls are given as the source filed them.

The target of one data set is Phosphomannomutase 2 (Homo sapiens, UniProt O15305). The experiment in a line: Counter screen SAR assay for PMM2 inhibitors via a fluorescence intensity assay. [Related pubchem assays (depositor defined):AID1545, AID1574]. Background: Counterscreens check selectivity or assay interference.
The target of data set [1] is T1, Mannose-6-phosphate isomerase (Homo sapiens, UniProt P34949).
T1 sequence (P34949 whole entry): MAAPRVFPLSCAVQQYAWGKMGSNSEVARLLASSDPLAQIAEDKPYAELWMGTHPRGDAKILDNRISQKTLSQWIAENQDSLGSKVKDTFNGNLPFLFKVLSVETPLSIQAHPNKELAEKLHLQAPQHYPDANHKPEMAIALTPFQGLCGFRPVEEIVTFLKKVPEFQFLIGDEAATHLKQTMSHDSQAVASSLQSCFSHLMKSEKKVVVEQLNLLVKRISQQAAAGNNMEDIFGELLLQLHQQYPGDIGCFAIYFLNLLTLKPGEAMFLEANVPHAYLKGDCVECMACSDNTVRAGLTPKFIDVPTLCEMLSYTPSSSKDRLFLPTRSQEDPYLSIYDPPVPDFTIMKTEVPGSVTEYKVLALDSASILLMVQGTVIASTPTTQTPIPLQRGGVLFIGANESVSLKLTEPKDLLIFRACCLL
The experiment in a line: phosphomannose isomerase inhibition – biochemical, fluorescence intensity, confirmation (AID 1535).

Data set [2] is described as follows: microbe, parasite or virus in culture. It counts as functional. As to conditions: Mycobacterium tuberculosis.
Data set [3] concerns Escherichia coli. The experiment in a line: microbe, parasite or virus in culture.
Data set [4] has as its system Escherichia coli. The experiment in a line: microbe, parasite or virus in culture. This is another data set of the same source.
The target in the next data set is Cytochrome P450 2D6 (Homo sapiens, UniProt P10635).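 Further: CYP2D6 member of a cytochrome P450 panel assay.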
A further data set concerns the target T2, Cytochrome P450 1A2 (Homo sapiens, UniProt P05177).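 Further: PubChem cytochrome P450 panel assay, CYP1A2 panel member.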
T2 sequence (P05177 whole entry): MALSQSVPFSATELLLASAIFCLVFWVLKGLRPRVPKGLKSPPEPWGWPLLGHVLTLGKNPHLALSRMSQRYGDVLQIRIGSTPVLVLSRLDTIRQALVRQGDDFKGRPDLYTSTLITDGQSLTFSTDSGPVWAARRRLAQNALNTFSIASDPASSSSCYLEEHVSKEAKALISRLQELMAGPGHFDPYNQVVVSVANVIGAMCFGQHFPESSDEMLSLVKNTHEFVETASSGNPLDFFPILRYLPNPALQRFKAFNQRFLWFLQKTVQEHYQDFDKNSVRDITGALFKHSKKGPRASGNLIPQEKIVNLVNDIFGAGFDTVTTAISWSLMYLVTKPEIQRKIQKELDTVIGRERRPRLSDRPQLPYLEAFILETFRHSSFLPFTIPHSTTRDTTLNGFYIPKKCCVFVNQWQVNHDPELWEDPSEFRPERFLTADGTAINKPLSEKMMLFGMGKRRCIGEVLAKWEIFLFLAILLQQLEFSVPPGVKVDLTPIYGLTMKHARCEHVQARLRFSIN

A further data set deals with T3, Streptokinase A (Streptococcus pyogenes serotype M1, UniProt P10520).
T3 sequence (P10520 whole entry): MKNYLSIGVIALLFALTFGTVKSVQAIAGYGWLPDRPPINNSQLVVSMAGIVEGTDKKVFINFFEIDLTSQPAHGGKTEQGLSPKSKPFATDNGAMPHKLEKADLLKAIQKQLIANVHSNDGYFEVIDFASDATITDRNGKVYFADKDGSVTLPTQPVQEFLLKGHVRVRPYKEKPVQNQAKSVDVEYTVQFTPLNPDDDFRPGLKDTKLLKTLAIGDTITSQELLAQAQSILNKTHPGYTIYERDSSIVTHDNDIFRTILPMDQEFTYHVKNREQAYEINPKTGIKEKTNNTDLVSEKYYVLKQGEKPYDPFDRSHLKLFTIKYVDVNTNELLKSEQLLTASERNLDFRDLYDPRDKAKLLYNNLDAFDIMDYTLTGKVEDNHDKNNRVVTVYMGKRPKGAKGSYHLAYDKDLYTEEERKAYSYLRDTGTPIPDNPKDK
The experiment in a line: viability-normalized secreted streptokinase activity reduction – plasminogen activation absorbance, OD405, dose response (AID 1914).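 Further: secreted streptokinase activity via plasminogen activation per viability signal from cell pellet.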 It counts as functional, Streptococcus pyogenes M1 GAS.

For data set [5], the target named is Intestinal-type alkaline phosphatase (Homo sapiens, UniProt P09923). The experiment in a line: inhibition of human intestinal alkaline phosphatase – biochemical, dose response (AID 488876). It is filed as functional.
Data set [6] has as its target Intestinal-type alkaline phosphatase (Mus musculus, UniProt P24822). Kind of data set: PubChem AID 488785. It counts as functional.
The target of data set [7] is T4, Alkaline phosphatase, tissue-nonspecific isozyme (Homo sapiens, UniProt P05186).
T4 sequence (P05186 whole entry): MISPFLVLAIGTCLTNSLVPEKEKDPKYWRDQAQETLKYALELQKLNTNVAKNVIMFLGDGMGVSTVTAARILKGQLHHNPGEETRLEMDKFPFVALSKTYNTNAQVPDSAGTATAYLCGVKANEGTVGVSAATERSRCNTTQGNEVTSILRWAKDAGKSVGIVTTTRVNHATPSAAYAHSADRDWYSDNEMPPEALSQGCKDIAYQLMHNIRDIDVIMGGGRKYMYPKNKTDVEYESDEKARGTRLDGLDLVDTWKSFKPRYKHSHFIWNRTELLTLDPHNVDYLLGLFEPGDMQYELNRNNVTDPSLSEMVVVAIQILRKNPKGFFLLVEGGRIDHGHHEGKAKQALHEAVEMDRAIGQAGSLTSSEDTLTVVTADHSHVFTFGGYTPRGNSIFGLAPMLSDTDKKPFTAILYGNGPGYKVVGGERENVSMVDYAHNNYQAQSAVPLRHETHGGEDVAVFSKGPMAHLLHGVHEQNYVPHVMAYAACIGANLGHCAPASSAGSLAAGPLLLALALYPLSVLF
The experiment in a line: TNAP enzyme inhibition by screening hits, dose response, selectivity assay for mouse IAP inhibitor project, biochemical, human TNAP, uHTS hits (AID 488906). It counts as functional.

A further data set has as its system HeLa. Kind of data set: ATP-based viability loss in HeLa cells – cell-based, CellTiter-Glo luminescence, cherry-pick samples, cytotoxicity control for MITF activator project, dose response (AID 540259). It is filed as functional. To be noted: Homo sapiens. (Cellular ATP, detected with luciferase, serves as a proxy for viable cell number.)
A short description of data set [8]: Luminescence Cell-Based Dose Response HTS to Identify Activators of Luciferase Translation or Activity in H4 […] Cells. [Related pubchem assays: 1829 (Project Summary), 1814 (Primary HTS)]. It counts as functional.
The target in data set [9] is T5, Oxysterols receptor LXR-beta (Homo sapiens, UniProt P55055).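 Further: agonist activity at LXR measured by a cell-based luminescence readout across a dose range, run as a counterscreen for daf-12 agonists; HEK293 cells with Gal4-LXR fusion and GAL4-driven luciferase reporter; potency for activation of Gal4-LXR reporter so compounds are agonists.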
T5 sequence (P55055 whole entry): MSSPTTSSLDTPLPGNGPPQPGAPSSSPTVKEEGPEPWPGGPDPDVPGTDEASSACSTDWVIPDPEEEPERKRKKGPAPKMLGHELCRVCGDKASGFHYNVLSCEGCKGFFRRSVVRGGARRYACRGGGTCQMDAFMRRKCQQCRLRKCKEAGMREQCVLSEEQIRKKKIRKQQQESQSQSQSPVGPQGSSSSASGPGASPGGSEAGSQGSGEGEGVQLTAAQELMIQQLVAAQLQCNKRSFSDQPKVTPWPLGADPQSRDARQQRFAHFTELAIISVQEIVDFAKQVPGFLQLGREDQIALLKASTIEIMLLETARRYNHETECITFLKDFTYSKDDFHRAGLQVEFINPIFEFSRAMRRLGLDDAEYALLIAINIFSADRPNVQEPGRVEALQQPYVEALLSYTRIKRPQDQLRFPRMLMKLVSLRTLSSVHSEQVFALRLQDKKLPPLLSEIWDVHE
It is filed as functional, cell-based.

Chain of Cytochrome P450 2D6 (P10635 whole entry): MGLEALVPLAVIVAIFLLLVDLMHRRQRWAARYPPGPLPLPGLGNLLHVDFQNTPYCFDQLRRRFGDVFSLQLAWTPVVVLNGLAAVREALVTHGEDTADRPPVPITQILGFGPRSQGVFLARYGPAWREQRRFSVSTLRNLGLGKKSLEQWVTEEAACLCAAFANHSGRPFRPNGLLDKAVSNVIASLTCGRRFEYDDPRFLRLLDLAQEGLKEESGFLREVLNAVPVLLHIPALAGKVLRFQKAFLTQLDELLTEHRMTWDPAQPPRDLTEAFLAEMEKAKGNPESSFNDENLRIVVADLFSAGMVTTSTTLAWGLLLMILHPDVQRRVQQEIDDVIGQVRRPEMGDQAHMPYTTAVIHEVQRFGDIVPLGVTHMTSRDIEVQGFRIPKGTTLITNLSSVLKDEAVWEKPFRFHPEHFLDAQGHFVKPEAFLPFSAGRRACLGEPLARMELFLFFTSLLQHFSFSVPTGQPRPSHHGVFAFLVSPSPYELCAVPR
Chain of Intestinal-type alkaline phosphatase (Mus musculus, UniProt P24822) (P24822 whole entry): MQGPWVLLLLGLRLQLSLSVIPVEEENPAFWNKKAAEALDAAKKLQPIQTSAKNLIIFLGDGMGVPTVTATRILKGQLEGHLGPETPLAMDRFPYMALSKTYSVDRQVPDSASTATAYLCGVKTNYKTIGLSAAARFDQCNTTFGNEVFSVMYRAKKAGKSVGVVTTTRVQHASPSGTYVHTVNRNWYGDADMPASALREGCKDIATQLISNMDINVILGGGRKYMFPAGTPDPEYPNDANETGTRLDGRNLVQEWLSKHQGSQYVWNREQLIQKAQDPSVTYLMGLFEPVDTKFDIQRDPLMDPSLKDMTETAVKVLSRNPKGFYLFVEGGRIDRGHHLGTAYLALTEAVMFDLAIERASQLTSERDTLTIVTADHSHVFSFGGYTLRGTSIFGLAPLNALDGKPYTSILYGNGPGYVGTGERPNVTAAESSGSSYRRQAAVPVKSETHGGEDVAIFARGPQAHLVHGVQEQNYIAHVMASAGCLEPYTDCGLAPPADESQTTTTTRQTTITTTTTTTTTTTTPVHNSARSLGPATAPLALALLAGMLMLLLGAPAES
Chain of Intestinal-type alkaline phosphatase (Homo sapiens, UniProt P09923) (P09923 whole entry): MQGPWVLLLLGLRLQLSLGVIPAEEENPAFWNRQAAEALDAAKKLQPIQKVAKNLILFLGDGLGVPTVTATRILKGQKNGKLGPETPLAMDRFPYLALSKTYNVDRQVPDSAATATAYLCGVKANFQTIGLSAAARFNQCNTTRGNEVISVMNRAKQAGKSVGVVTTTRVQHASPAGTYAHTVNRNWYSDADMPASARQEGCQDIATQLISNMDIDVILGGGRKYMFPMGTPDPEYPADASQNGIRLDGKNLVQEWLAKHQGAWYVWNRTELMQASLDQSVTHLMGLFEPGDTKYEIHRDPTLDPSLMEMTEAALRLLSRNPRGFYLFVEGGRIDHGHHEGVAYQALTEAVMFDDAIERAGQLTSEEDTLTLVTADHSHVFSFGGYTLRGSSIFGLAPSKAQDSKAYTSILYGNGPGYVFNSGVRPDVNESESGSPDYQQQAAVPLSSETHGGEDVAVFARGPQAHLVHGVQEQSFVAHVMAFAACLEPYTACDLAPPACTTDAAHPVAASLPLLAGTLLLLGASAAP
Chain of Phosphomannomutase 2 (O15305 whole entry): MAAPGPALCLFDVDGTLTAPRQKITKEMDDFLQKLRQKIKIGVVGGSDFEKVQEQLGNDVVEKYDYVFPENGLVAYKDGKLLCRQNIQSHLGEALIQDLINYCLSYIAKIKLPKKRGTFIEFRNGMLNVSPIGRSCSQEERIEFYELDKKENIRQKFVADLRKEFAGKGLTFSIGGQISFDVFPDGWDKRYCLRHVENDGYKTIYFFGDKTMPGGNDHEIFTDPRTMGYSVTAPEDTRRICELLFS

With `CCc1nnc(/N=c2\ssnc2Cl)s1`, the IC50 on Phosphomannomutase 2 was > 100 µM (inactive); in [1], 13.1 µM (active).

On to `CCCc1ccc2oc(C(=O)N(C)Cc3nccs3)c(C)c2c1`, for which the CC50 in data set [2] is 21.8 µM (active). The results for the half-maximal activity concentration (AC50) in the data set with Escherichia coli [3] and with Escherichia coli [4] were 31.7 µM (active) and > 380 µM (inactive), respectively.

Take `O=C(O)[C@@H]1[C@@H](C(=O)O)[C@]23C[C@@]2(C(=O)O)[C@]2(C(=O)O)CCC3=C3CCCC312`: the AC50 entry was “inconclusive” at Cytochrome P450 2D6 and 2.51 µM (inconclusive) at Cytochrome P450 1A2.

For `FC(F)Sc1ccc(NC(=S)NC(c2ccccc2)c2ccccc2)cc1`, the EC50 on Streptokinase A is on record as > 150 µM (not active). Further, the IC50 is > 100 µM (inactive) in [5], 0.998 µM (active) in data set [6] and 41.1 µM (active) in data set [7].

`Cc1ccc(N2C(=O)c3[nH]nc(C)c3C2c2ccccn2)cc1` (configuration not stated): the concentration at half-maximal activity (AC50) entry on Cytochrome P450 2D6 was “inconclusive”.

In the case of `c1ccc2nc(-c3nccs3)ccc2c1`, the half-maximal activity concentration (AC50) in the data set on HeLa was 57.5 µM (active).

As for `COc1ccc(/C=C2\SC(=O)N(CCNC(=O)C3CC4C=CC3C4)C2=O)cc1` (configuration not stated), the figures for the EC50 in [8] and in data set [9] were 0.164 µM (active) and > 67.5 µM (inactive), respectively. The AC50 in the data set on Escherichia coli [3] was 23.7 µM (active); with Escherichia coli [4], > 380 µM (inactive).
